target: GST tagged truncated human mutant G2019S LRRK2 (Homo sapiens (Human), UniProt Q5S007, G2019S); test: LRRK2 Km ATP LanthaScreen Assay; assay type: biochemical; details: G2019S LRRK2, 134 μM ATP (Km ATP), mean values
Method in brief: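 Enzyme (GST-tagged, truncated) was preincubated with compound for 15 min at RT in 50 mM Tris pH 8.5, 10 mM MgCl2, 0.01% Brij-35, 1 mM EGTA, 2 mM DTT and 0.05 mM orthovanadate. Fluorescein-LRRKtide and 134 μM ATP (Km) were then added for 90 min. EDTA and Tb-anti-pERM antibody stopped the reaction; the TR-FRET 520/495 ratio gave 4-parameter IC50s, reported as mean pIC50.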

Sequence of GST tagged truncated human mutant G2019S LRRK2 (Q5S007 970-2527 G2019S): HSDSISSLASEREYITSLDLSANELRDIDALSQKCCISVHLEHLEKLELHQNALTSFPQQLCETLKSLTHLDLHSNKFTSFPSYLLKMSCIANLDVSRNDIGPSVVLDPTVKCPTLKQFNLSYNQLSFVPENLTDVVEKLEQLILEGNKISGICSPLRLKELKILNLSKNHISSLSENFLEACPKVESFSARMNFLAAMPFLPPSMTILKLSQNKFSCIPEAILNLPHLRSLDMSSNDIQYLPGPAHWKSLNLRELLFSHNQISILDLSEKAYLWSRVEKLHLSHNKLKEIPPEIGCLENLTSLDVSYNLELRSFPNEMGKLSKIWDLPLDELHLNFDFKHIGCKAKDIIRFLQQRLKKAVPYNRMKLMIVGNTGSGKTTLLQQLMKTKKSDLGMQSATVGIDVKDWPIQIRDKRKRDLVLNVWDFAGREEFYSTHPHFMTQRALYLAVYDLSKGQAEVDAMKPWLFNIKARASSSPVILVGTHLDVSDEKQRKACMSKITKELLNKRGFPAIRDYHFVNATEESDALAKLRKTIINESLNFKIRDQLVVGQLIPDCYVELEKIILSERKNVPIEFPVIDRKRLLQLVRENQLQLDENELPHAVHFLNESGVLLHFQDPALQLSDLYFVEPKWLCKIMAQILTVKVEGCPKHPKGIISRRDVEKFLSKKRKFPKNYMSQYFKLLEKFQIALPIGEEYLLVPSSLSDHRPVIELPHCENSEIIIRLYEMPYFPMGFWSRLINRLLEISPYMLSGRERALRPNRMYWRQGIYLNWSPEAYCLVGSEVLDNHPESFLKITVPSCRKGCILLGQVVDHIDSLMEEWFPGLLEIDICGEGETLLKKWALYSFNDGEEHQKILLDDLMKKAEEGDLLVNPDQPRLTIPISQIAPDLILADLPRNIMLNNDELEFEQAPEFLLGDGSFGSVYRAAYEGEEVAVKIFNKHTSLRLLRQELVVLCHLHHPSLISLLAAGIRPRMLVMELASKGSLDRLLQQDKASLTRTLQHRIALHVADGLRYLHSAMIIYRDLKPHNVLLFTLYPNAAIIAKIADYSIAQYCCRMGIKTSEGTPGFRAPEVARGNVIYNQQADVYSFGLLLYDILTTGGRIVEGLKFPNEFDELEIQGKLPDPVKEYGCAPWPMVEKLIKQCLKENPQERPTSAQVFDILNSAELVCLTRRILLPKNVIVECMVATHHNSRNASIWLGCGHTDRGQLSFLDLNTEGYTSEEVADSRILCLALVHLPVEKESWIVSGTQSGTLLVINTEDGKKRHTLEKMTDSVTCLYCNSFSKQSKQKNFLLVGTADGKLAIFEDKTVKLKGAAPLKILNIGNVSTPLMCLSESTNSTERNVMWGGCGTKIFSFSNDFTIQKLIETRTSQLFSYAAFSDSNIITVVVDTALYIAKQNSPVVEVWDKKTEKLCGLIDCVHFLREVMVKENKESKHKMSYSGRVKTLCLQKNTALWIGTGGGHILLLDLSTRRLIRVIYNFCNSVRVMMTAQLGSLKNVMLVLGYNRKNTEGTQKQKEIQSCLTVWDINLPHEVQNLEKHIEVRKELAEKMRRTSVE

`Cc1cc2cnc(Nc3cnn(C4CC4)c3C)nc2cc1C1CCN([C@@H]2COC[C@@H]2O)CC1` (single isomer, unassigned) [Ex-5.7, (3S,4S) or (3R,4R) 4-(4-{2-[(1-cyclopropyl-5-methyl-1H-pyrazol-4-yl)amino]-6-methylquinazolin-7-yl}piperidin-1-yl)oxolan-3-ol] was tested, and the “LRRK2 pIC50” value was >9.20.
In the case of `Cc1cc2cnc(Nc3cnn(C)c3C(F)(F)F)nc2cc1C1CCN([C@]2(C)COC[C@@H]2O)CC1` (single isomer, unassigned) [Ex-5.16, (3S,4S) or (3R,4R) 4-methyl-4-(4-(6-methyl-2-((1-methyl-5-(trifluoromethyl)-1H-pyrazol-4-yl)amino)quinazolin-7-yl)piperidin-1-yl)tetrahydrofuran-3-ol], the “LRRK2 pIC50” value is reported as >9.20.

Compared with `Cc1cc(Nc2ncc3cc(C)c([C@@H]4CCN([C@@H]5COC[C@@H]5O)C[C@H]4F)cc3n2)n(C)n1` (single isomer, unassigned) [Ex-5.9, (3S,4S)(3S,4S) or (3S,4S)(3R,4R) or (3R,4R)(3S,4S) or (3R,4R)(3R,4R) 4-(4-{2-[(1,3-dimethyl-1H-pyrazol-5-yl)amino]-6-methylquinazolin-7-yl}-3-fluoropiperidin-1-yl)oxolan-3-ol], `Cc1cc(Nc2ncc3cc(C)c([C@@H]4CCN([C@H]5COC[C@H]5O)C[C@H]4F)cc3n2)n(C)n1` (single isomer, unassigned) [Ex-5.10, (3S,4S)(3S,4S) or (3S,4S)(3R,4R) or (3R,4R)(3S,4S) or (3R,4R)(3R,4R) 4-(4-{2-[(1,3-dimethyl-1H-pyrazol-5-yl)amino]-6-methylquinazolin-7-yl}-3-fluoropiperidin-1-yl)oxolan-3-ol] is lower in “LRRK2 pIC50” value: 8.49 for the first, 6.66 for the second.

First: Cc1cc(Nc2ncc3cc(C)c([C@H]4CCN([C@@H]5COC[C@@H]5O)C[C@@H]4F)cc3n2)n(C)n1 (single isomer, unassigned) [Ex-5.11, (3S,4S)(3S,4S) or (3S,4S)(3R,4R) or (3R,4R)(3S,4S) or (3R,4R)(3R,4R) 4-(4-{2-[(1,3-dimethyl-1H-pyrazol-5-yl)amino]-6-methylquinazolin-7-yl}-3-fluoropiperidin-1-yl)oxolan-3-ol]
Second: Cc1cc(Nc2ncc3cc(C)c([C@H]4CCN([C@H]5COC[C@H]5O)C[C@@H]4F)cc3n2)n(C)n1 (single isomer, unassigned) [Ex-5.12, (3S,4S)(3S,4S) or (3S,4S)(3R,4R) or (3R,4R)(3S,4S) or (3R,4R)(3R,4R) 4-(4-{2-[(1,3-dimethyl-1H-pyrazol-5-yl)amino]-6-methylquinazolin-7-yl}-3-fluoropiperidin-1-yl)oxolan-3-ol]
The “LRRK2 pIC50” value of the first is higher: 8.57 for the first, 6.03 for the second.

`Cc1cc(Nc2ncc3cc(C)c(C4CCN([C@]5(C)COC[C@@H]5O)CC4)cc3n2)n(C)n1` (single isomer, unassigned) [Ex-5.13, (3S,4S)(3S,4S) or (3S,4S)(3R,4R) or (3R,4R)(3S,4S) or (3R,4R)(3R,4R) 4-(4-{2-[(1,3-dimethyl-1H-pyrazol-5-yl)amino]-6-methylquinazolin-7-yl}piperidin-1-yl)-4-methyloxolan-3-ol] and `Cc1cc2cnc(Nc3cc(C(C)(C)C)nn3C)nc2cc1C1CCN([C@]2(C)COC[C@@H]2O)CC1` (single isomer, unassigned) [Ex-5.14, (3S,4S) or (3R,4R) 4-(4-{2-[(3-tert-butyl-1-methyl-1H-pyrazol-5-yl)amino]-6-methylquinazolin-7-yl}piperidin-1-yl)-4-methyloxolan-3-ol] are within 0.2 log units of each other in “LRRK2 pIC50” value: 9.00 for the first, 9.02 for the second.

`Cc1cc2cnc(Nc3cc(C(F)(F)F)nn3C)nc2cc1C1CCN([C@]2(C)COC[C@@H]2O)CC1` (single isomer, unassigned) [Ex-5.15, (3S,4S) or (3R,4R) 4-methyl-4-[4-(6-methyl-2-{[1-methyl-3-(trifluoromethyl)-1H-pyrazol-5-yl]amino}quinazolin-7-yl)piperidin-1-yl]oxolan-3-ol] was tested, and the “LRRK2 pIC50” value was 8.42.

Source: patent US12540131B2 (Merck Sharp & Dohme LLC, priority 2019, dated 2026)
